# Measurements reported in patent publication US8716317B2, “Sulfonamides with heterocycle and oxadiazolone headgroup, processes for their preparation and their use as pharmaceuticals” (Sanofi, priority 2008, dated 2014).
# Where two headings read alike, the source gives them in different places.
# Tests used:
# [1] = diabetic animal model; cited from earlier work
# [2] = obese, insulin resistant rhesus monkeys, cited from earlier work
# human PPARdelta = target: T1, human PPARdelta (Homo sapiens, UniProt Q03181); assay: Cellular PPARdelta assay (luciferase reporter, stably transfected HEK cell line); assay type: cell-based; details: GR-GAL4-humanPPARdelta-LBD
# T1 construct: amino acids S139-Y441; expressed in transfected cells; host or cells: HEK (human embryo kidney) cells, stably transfected with a pcDNA3 construct
# T1 sequence (Q03181 139-441): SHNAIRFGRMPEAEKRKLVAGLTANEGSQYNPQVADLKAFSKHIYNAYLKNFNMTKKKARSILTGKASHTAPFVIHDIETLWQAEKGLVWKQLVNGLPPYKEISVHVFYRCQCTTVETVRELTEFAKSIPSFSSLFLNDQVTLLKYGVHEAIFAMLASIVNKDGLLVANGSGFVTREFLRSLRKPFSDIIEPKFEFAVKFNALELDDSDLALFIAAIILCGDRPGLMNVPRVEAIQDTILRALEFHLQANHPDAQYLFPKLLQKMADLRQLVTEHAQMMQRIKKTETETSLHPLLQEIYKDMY
# Protocol: (§1) The potency of substances which bind to human PPARdelta and activate it in an agonistic manner is analyzed using a stably transfected HEK cell line (HEK=human embryo kidney) which is referred to here as PPARdelta reporter cell line. In analogy to the assay described for PPARalpha, the PPARdelta reporter cell line also contains two genetic elements, a luciferase reporter element (pdeltaM-GAL4-Luc-Zeo) and a PPARdelta fusion protein (GR-GAL4-humanPPARdelta-LBD) which mediates expression of the luciferase reporter element depending on a PPARdelta ligand. The stably and constitutively expressed fusion protein GR-GAL4-humanPPARdelta-LBD binds in the cell nucleus of the PPARdelta reporter cell line via the GAL4 protein portion to the GAL4 DNA binding motifs 5″-upstream of the luciferase reporter element which is stably integrated in the genome of the cell line. There is only little expression of the luciferase reporter gene in the absence of a PPARdelta ligand if fatty acid-depleted fetal calf serum (cs-FCS) is used in the assay. PPARdelta ligands bind and activate the PPARdelta fusion protein and thereby stimulate expression of the luciferase reporter gene. The luciferase which is formed can be detected by means of chemiluminescence via an appropriate substrate.
# The production of the stable PPARdelta reporter cell line is based on a stable HEK-cell clone which was stably transfected with a luciferase reporter element. This step was already described above in the section “construction of the PPARalpha reporter cell line”. […]
# The activity of PPARdelta agonists is determined in a 3-day assay in exact analogy to the procedure already described for the PPARalpha reporter cell line except that the PPARdelta reporter cell line and a specific PPARdelta agonist was used as a standard to control test efficacy.
# human PPARalpha = target: T2, human PPARalpha (Homo sapiens, UniProt Q07869); assay: Cellular PPARalpha assay (luciferase reporter, stably transfected HEK cell line); assay type: cell-based; details: GR-GAL4-humanPPARalpha-LBD
# T2 construct: amino acids S167-Y468; expressed in transfected cells; host or cells: HEK (human embryo kidney) cells, stably transfected with a pcDNA3 construct
# T2 sequence (Q07869 167-468): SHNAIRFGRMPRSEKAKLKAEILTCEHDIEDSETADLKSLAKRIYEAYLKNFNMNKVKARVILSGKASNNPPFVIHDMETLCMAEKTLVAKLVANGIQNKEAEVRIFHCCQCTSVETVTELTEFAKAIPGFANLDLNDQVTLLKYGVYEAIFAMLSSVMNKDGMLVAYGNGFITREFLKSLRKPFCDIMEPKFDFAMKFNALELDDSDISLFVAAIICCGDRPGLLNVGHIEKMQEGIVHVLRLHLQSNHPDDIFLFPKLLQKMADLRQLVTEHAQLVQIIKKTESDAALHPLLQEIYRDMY
# Protocol: as §1, with “PPARalpha” for “PPARdelta”, “It” for “In analogy to the assay described for PPARalpha, the PPARdelta reporter cell line also”, “(GR-GAL4-humanPPARalpha-LBD)” for “(GR-GAL4-humanPPARdelta-LBD)”, “GR-GAL4-humanPPARalpha-LBD” for “GR-GAL4-humanPPARdelta-LBD”, “weak” for “little”, “stimulate the” for “stimulate”
# The PPARalpha reporter cell line was prepared in two stages. […]
# The activity of PPARalpha agonists is determined in a 3-day assay which is described below: […]
# [3] = rhesus and cynomolgus monkeys; cited from earlier work
# [4] = two weeks clinical trials in healthy volunteers; cited from earlier work
smiles,measurement,setting,value
CCCc1c(OCCCOc2ccc(OCC(=O)O)cc2)ccc(C(C)=O)c1O [Example L-165041],plasma cholesterol,[1],raises plasma cholesterol
Cc1cc(SCc2sc(-c3ccc(C(F)(F)F)cc3)nc2C)ccc1OCC(=O)O [GW501516],insulin levels,[2]; plasma,decreases
same,triglycerides,[2]; plasma,decreases
same,HDL-cholesterol,[2],raises
same,plasma LDL-cholesterol,[2],decreases
"O=c1[nH]c(-c2ccc(S(=O)(=O)N3CCc4cc(-c5ccc(C(F)(F)F)cc5)ccc43)nc2)no1 [Example 2, 3-{6-[5-(4-Trifluoromethyl-phenyl)-2,3-dihydro-indole-1-sulfonyl]-pyridin-3-yl}-4H-[1,2,4]oxadiazol-5-one]",EC50,human PPARdelta,336 nM
same,EC50,human PPARalpha,6700 nM
CCCc1c(OCCCSc2nnc(SCC(=O)O)s2)ccc(C(C)=O)c1O [YM-16638],plasma lipids,[3],significantly lowers plasma lipids
same,plasma lipids,[4],acts in a similar manner
"O=c1[nH]c(-c2ccc(S(=O)(=O)N3CCc4cc(-c5ccc(C(F)(F)F)cc5)ccc43)cn2)no1 [Example 3, 3-{5-[5-(4-Trifluoromethyl-phenyl)-2,3-dihydro-indole-1-sulfonyl]-pyridin-2-yl}-4H-[1,2,4]oxadiazol-5-one]",EC50,human PPARdelta,13 nM
"O=c1[nH]c(-c2ccc(S(=O)(=O)N3CCc4cc(-c5ccc(C(F)(F)F)cc5)ccc43)s2)no1 [Example 1, 3-{5-[5-(4-Trifluoromethyl-phenyl)-2,3-dihydro-indole-1-sulfonyl]thiophen-2-yl}-4H-[1,2,4]oxadiazol-5-one]",EC50,human PPARdelta,21 nM
same,EC50,human PPARalpha,920 nM
